Test results reported in patent US20250282829A1, “ENGINEERED SYNTHETIC PEPTIDES, COMPOSITIONS COMPRISING SAME, AND METHODS OF USE THEREOF FOR TREATING MALIGNANT GLIOMAS” (INSTYTUT BIOLOGII DOSWIADCZALNEJ IM. MARCELEGO NENCKIEGO …, priority 2022, published 2025).

Assays:
recombinant OPN protein = recombinant OPN protein (Homo sapiens, UniProt P10451); assay: ELISA assessing peptide-protein binding; settings: N-terminal biotin peptides on OPN-coated plates
Method: FIGS. 2A and 2B. OPN-binding peptides. (FIG. 2A) OPN binding peptides were identified using peptide microarrays comprising synthetic peptides. Images of peptide microarrays after incubation with PBS buffer (control), with rhOPN and after immunochemical staining. Control peptides (peptide containing Myc tag—positive control) and peptides with the highest signal were marked on the microarray image. (FIG. 2B) OPN binding peptides identified using ELISA. Peptides with the strongest binding to OPN were selected. Means ±SD are shown, standard deviations were calculated from three independents measurements.
To verify the obtained results, the ELISA method assessing peptide-protein binding was used. In the assay, 96-well ELISA plates were coated with recombinant OPN protein. Uncoated wells were used as controls. Unbound proteins were then washed away and the remaining non-specific binding was blocked with bovine serum protein (BSA). Test peptides with N-terminal biotin attached were added. After incubation, unbound peptides were removed by washing several times. Peptides that bound to OPN were detected using a primary anti-biotin antibody and a secondary antibody linked to horseradish peroxidase. This enzyme catalyses a reaction in which a coloured product is formed from the added substrate. The amount of bound peptides was proportional to the amount of coloured product, which was measured using a spectrophotometer. Of the 52 integrin receptor-derived peptides tested, 9 OPN-binding peptides were identified: I3, I4, I20, I32, I38, I40, I47, I49, I50 (FIG. 2B). The following peptides were selected for further analysis: […], I4, I20, I32, I38, I40, I47, I49, I50.

[1] = test system: U87 MG cells stimulated by BV2 microglial cells; assay: Matrigel invasiveness of U87 MG cells in co-culture with BV2 microglia; assay type: cell-based, human; settings: 100 μM, 18 h
Method: (§1) FIG. 4. Effect of OPN binding peptides on U87 MG cell invasiveness in the presence of murine BV2 and human SV40 microglial cells. (K−)—negative control—invasiveness of U87 MG cells without microglia; (K+)—positive control, invasiveness of U87 MG dependent on BV2 or SV40 microglia, defined as 100%; DMSO-cells treated with 0.2% DMSO-peptide solvent. Results are presented as means ±standard deviation calculated from three independent biological replicates. Selected peptides block microglia-dependent invasiveness.
(§2) Studies conducted by the present inventors indicate an important role of the OPN protein in the reprogramming of microglia and peripheral macrophages by glioblastoma cells to a protumorigenic phenotype (Ellert-Miklaszewska et al. 2016). […] Investigating the contribution of human OPN to human glioblastoma growth is important in the context of using a peptide that binds human OPN produced by glioma and can block communication between the glioma and the microenvironment. The U87 MG RFP human glioblastoma cell line was established with silenced expression of the OPN protein (shOPN). […] The number of glioma cells actively penetrating the Matrigel Matrix layer (BD Biosciences, extracellular matrix surrogate) in the presence of SV40 human microglial cells was counted. Microglial cells are plated on 24-well plate, after 24 hours, inserts previously covered with Matrigel suspension are placed in the wells, and glioblastoma cells are seeded on its surface. The tested compounds, potentially blocking the invasiveness of cells, are added in a certain concentration to the medium in both the lower and upper layers of the system. After 18 hours of incubation, the Matrigel is removed and the cells on the insert membrane (invading cells) are fixed and stained with a DAPI fluorescent marker. Slides were then photographed using a fluorescence microscope and cells were counted using Image J software (imagej.nih.gov/ij/).
(§3) The effect of selected OPN-binding peptides on the invasiveness of U87 MG cells stimulated by the presence of microglial cells was investigated. […]

[2] = test system: U87 MG cells and SV40 human microglia cells; assay: Matrigel invasiveness of U87 MG cells with SV40 human microglia; assay type: cell-based
Method: as §1, §2, §3

[3] = test system: human glioblastoma U87 MG RFP cells implanted in the brain of nude mice; assay: Mouse model of human glioblastoma, intratumoural osmotic pump, MRI tumour size; assay type: in vivo; settings: osmotic pump for 3 weeks, MRI T2, control peptide I49S
Method: FIGS. 5A and 5B. Effect of peptide 149 on glioblastoma growth in mice. (FIG. 5A) Representative images obtained after vital MRI imaging. The pictures show a section through the center of the tumour, showing the cannula supplying the peptide from the osmotic pump. (FIG. 5B) Tumour volume (n=10) calculated using OsiriX DICOM Viewer from MRI scans.
The anticancer effect of the 149 peptide has been tested. The model of human glioblastoma U87 MG RFP cells implanted in the brain of nude (immunodeficient) mice was used. Peptides were administered via osmotic pumps delivering the peptide directly to the tumour at a constant rate. […] Peptide I49 or control peptide I49S were administered using pumps for 3 weeks, pumps were installed in the mouse brain immediately after implantation of U87 MG RFP cells. Magnetic resonance imaging (MRI T2) was used to assess the size of the tumours.

alphav integrins = target: T1, alphav integrins (Homo sapiens, UniProt P06756); settings: large number of patients, phase III; cited from earlier work
T1 construct: host or cells: patients
T1 sequence (P06756 31-1048): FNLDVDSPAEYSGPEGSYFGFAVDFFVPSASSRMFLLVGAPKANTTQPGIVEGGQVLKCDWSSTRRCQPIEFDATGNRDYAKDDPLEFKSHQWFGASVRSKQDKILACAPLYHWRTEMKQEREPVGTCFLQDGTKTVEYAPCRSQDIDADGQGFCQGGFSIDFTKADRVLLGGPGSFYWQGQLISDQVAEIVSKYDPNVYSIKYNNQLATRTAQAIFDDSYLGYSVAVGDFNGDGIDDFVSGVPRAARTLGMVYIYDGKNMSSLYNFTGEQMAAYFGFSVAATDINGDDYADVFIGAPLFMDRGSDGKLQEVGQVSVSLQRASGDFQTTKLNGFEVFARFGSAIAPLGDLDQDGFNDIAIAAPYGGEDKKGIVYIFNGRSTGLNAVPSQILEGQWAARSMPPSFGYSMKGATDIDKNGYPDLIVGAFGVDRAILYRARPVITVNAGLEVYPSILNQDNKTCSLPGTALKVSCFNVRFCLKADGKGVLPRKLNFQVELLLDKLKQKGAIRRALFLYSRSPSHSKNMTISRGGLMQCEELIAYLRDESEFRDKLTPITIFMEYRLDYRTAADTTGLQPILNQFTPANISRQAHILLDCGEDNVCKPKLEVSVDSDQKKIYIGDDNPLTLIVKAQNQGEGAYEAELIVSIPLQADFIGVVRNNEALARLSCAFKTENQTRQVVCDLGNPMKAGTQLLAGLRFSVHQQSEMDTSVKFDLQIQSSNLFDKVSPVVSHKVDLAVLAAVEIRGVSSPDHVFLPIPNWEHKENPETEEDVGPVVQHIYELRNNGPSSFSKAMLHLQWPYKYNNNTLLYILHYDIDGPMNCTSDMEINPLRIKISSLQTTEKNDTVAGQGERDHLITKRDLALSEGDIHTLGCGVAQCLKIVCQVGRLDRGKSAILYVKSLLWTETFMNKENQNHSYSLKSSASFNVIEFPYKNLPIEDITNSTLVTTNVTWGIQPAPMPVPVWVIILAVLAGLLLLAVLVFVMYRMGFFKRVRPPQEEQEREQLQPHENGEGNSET

Sequence of recombinant OPN protein (P10451 17-314): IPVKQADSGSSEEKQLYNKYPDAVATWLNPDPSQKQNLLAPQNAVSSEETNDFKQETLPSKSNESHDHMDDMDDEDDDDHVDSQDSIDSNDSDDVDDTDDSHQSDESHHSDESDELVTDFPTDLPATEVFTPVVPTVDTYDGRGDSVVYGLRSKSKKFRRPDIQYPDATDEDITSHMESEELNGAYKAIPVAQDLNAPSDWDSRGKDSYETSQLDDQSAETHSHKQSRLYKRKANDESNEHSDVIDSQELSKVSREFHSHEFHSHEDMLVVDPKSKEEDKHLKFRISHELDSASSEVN

peptide binding to OPN in ELISA (recombinant OPN protein)	Compound	inhibition of microglia-dependent glioma cell invasiveness [1]	effect on invasiveness of U87 cells in the presence of human SV40 microglia [2]	tumour growth compared to the control group [3]	clinical effectiveness (alphav integrins)
OPN-binding	SLYNFTGEQMAAYF (listed as Homo sapiens) [I50]	inhibited microglia-dependent glioma cell invasiveness	inhibited the invasiveness	–	–
OPN-binding	YDGKNMSSLYNFTG [I49]	inhibited microglia-dependent glioma cell invasiveness	inhibited the invasiveness	reduction in tumour growth	–
–	CC(C)[C@H]1C(=O)N[C@@H](CCCN=C(N)N)C(=O)NCC(=O)N[C@@H](CC(=O)O)C(=O)N[C@H](Cc2ccccc2)C(=O)N1C [cilengitide, cyclo-(Arg-Gly-Asp-DPhe-NMe-Val)]	–	–	–	did not show the effectiveness
OPN-binding	SKYDPNVYSIKYNN (listed as Homo sapiens) [I40]	inhibited microglia-dependent glioma cell invasiveness	inhibited the invasiveness	–	–
